IC50 and Kd data for nine molecules are collected here from patent US20260070899A1, “N-(2-(4-CYANOTHIAZOLIDIN-3-YL)-2-OXOETHYL)-QUINOLINE-4-CARBOXAMIDES” (AstraZeneca AB, priority 2022, published 2026).

In one assay the target is T1, hFAP (Homo sapiens, UniProt Q12884).
T1 sequence (Q12884 38-760): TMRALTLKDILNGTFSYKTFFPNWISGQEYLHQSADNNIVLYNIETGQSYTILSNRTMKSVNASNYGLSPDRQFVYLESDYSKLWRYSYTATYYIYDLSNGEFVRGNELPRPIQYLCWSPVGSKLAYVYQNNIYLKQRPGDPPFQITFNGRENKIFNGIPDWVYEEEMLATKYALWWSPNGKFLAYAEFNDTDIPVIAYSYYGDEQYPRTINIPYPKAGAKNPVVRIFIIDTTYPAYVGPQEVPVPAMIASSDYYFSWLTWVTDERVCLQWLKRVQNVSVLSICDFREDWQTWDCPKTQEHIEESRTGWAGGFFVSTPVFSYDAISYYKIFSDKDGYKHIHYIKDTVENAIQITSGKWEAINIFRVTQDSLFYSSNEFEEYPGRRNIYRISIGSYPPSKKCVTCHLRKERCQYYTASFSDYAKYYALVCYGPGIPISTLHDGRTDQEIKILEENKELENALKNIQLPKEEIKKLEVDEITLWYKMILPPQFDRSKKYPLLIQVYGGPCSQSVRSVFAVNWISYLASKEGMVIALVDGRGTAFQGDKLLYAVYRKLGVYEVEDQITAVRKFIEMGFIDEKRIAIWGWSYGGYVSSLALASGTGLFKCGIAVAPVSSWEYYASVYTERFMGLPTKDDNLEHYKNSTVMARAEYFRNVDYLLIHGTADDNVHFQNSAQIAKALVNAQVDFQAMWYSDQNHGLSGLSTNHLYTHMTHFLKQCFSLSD
Nature of the assay: biochemical.

The target of another assay is T2, hFAP (M39-A757) (Homo sapiens, UniProt Q12884).
T2 sequence (Q12884 39-757): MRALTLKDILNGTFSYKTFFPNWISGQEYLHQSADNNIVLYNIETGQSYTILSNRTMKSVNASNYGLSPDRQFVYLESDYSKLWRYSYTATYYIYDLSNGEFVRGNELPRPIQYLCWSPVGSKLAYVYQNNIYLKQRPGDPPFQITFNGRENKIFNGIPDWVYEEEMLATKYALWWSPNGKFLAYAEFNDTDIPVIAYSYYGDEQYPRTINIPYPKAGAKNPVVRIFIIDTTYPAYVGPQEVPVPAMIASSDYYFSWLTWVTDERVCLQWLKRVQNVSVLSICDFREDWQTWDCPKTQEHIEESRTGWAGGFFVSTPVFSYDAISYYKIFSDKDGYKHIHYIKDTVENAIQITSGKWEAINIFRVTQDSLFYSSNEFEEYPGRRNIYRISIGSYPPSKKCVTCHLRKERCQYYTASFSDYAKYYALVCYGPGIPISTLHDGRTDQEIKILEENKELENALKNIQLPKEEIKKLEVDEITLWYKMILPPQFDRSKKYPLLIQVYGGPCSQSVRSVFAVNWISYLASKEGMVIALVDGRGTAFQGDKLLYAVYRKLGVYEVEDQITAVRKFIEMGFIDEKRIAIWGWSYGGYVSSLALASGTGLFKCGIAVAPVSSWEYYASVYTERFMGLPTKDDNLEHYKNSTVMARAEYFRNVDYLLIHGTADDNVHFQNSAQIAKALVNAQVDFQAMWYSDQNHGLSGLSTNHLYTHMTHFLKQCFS
The assay can be described thus: biochemical.
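For IC50 in this document: substrate fluorescence read at room temperature in darkness, IC50 obtained by one-site dose-response fitting of percent inhibition against log concentration.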
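For Kd in this document: surface plasmon resonance direct binding to hFAP amine-coupled on a sensor chip, rising compound concentrations by single cycle kinetics, Kd from global fit of interaction models.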

Experimental for hFAP (M39-A757): Compounds were tested in a direct binding assay using 8K surface plasmon resonance biosensor (GE Healthcare) at 20° C. Immobilization of hFAP (M39-A757) on a CMD200M sensor chip (Xantec) was performed using standard amine coupling procedure in immobilization buffer (10 mM HEPES, 150 mM NaCl, 0.05% Tween20, pH 7.4). The surface was washed with 10 mM aq NaOH, 1M NaCl before being activated with EDC/NHS (GE Healthcare), followed by immobilization of hFAP (in 10 mM Acetate pH 5.0). Finally, the surface was deactivated by ethanolamine. Immobilization levels of hFAP were around 4000-6000 RU. The reference spot was treated as described, omitting the injection of hFAP. Compound concentration series were injected over the immobilized protein in increasing concentrations (2-500 nM) using single cycle kinetics in running buffer (20 mM TRIS, 150 mM NaCl, 0.05% Tween20, 1% DMSO, pH 7.4). Interaction models were fitted globally to the experimental traces, enabling determination of kon, koff and Kd.

`N#C[C@@H]1CSCN1C(=O)CNC(=O)c1ccnc2ccc(C3CCCCO3)cc12` (mixture of isomers) [Example 32, N-(2-((R)-4-Cyanothiazolidin-3-yl)-2-oxoethyl)-6-((RS)-tetrahydro-2H-pyran-2-yl)quinoline-4-carboxamide] yielded an IC50 against hFAP of 0.63 nM. The same molecule yielded a Kd at hFAP (M39-A757) of 0.35 nM.
On to `CO[C@H]1CC[C@H](c2ccc3nccc(C(=O)NCC(=O)N4CSC[C@H]4C#N)c3c2)CC1` (single isomer, unassigned) [Example 78, N-(2-((R)-4-Cyanothiazolidin-3-yl)-2-oxoethyl)-6-((1r,4R*)-4-methoxycyclohexyl)quinoline-4-carboxamide], for which, at hFAP (M39-A757), the Kd turned out to be 0.022 nM.
On the same count and under the same terms, with `CC(C)(F)COc1ccc2nccc(C(=O)NCC(=O)N3CSC[C@H]3C#N)c2c1` [Example 3, (R)—N-(2-(4-Cyanothiazolidin-3-yl)-2-oxoethyl)-6-(2-fluoro-2-methylpropoxy)quinoline-4-carboxamide] the figure was 0.062 nM.
Consider `N#C[C@@H]1CSCN1C(=O)CNC(=O)c1ccnc2ccc(C3(O)CCOCC3)cc12` [Example 15, (R)—N-(2-(4-Cyanothiazolidin-3-yl)-2-oxoethyl)-6-(4-hydroxy-tetrahydro-2H-pyran-4-yl)quinoline-4-carboxamide], for which half-maximal inhibition against hFAP (IC50) required 0.45 nM. The same molecule yielded a Kd at hFAP (M39-A757) of 0.068 nM.
For `CC(C)(O)c1ccc2nccc(C(=O)NCC(=O)N3CSC[C@H]3C#N)c2c1` [Example 16, (R)—N-(2-(4-Cyanothiazolidin-3-yl)-2-oxoethyl)-6-(2-hydroxypropan-2-yl)quinoline-4-carboxamide] the same measures were 0.6 nM and 0.23 nM.
`COC(C)(C)c1ccc2nccc(C(=O)NCC(=O)N3CSC[C@H]3C#N)c2c1` [Example 18, (R)—N-(2-(4-Cyanothiazolidin-3-yl)-2-oxoethyl)-6-(2-methoxypropan-2-yl)quinoline-4-carboxamide] came in with an IC50 at hFAP of 0.81 nM. For the same molecule, the affinity on hFAP (M39-A757), expressed as Kd, was 0.43 nM.
On hFAP, `N#C[C@@H]1CSCN1C(=O)CNC(=O)c1ccnc2ccc(C3CCOCC3)cc12` [Example 20, (R)—N-(2-(4-Cyanothiazolidin-3-yl)-2-oxoethyl)-6-(tetrahydro-2H-pyran-4-yl)quinoline-4-carboxamide] had an IC50 of 0.23 nM. At hFAP (M39-A757), this molecule yielded a Kd of 0.056 nM.
In the same order, the values of `CCOC1(c2ccc3nccc(C(=O)NCC(=O)N4CSC[C@H]4C#N)c3c2)CCOCC1` [Example 23, (R)—N-(2-(4-Cyanothiazolidin-3-yl)-2-oxoethyl)-6-(4-ethoxytetrahydro-2H-pyran-4-yl)quinoline-4-carboxamide] are 0.71 nM and 0.059 nM.
In the same order, the values of `N#C[C@@H]1CSCN1C(=O)CNC(=O)c1ccnc2ccc(C3(C#N)CC3)cc12` [Example 70, (R)-6-(1-Cyanocyclopropyl)-N-(2-(4-cyanothiazolidin-3-yl)-2-oxoethyl)quinoline-4-carboxamide] are 0.43 nM and 0.62 nM.

One may read the IC50 as the midpoint of a concentration-inhibition curve. Higher therefore signals weaker potency in that assay. As usually defined, the Kd is the free concentration of one partner at which half of the binding sites on the other are occupied at equilibrium, for simple one-to-one binding.
